From patent publication US8415308B2, “1′-substituted-carba-nucleoside prodrugs for antiviral treatment” (Gilead Sciences, Inc., priority 2010, dated 2013)
pEC50, pIC50: −log10 of the molar value.

System: Replicon cells
Test: HCV EC50 determination in replicon cells (luciferase)
Type: cell-based
Conditions: Hepatitis C virus, 72 h
Procedure: Replicon cells were seeded in 96-well plates at a density of 8×10^3 cells per well in 100 μL of culture medium, excluding Geneticin. Compound was serially diluted in 100% DMSO and then added to the cells at a 1:200 dilution, achieving a final concentration of 0.5% DMSO and a total volume of 200 μL. Plates were incubated at 37° C. for 3 days, after which culture medium was removed and cells were lysed in lysis buffer provided by Promega's luciferase assay system. Following the manufacturer's instruction, 100 μL of luciferase substrate was added to the lysed cells and luciferase activity was measured in a TopCount luminometer.
The specific activity observed may vary according to and depending on the particular replicon tested, the active compound selected or whether there are present pharmaceutical carriers, as well as the type of formulation and mode of administration employed, and such expected variations or differences in the results are contemplated in accordance with practice of the present invention.

Row | SMILES | pEC50
1 | CC(C)OC(=O)[C@H](C)NP(=O)(OC[C@H]1O[C@@](C#N)(c2ccc3c(N)ncnn23)[C@](C)(O)[C@@H]1OC(=O)C(C)C)Oc1ccccc1 (stereo partly drawn) [Compound 8] | 6.28 to 6.85
2 | CC(C)OC(=O)[C@H](C)N[P@@](=O)(OC[C@H]1O[C@@](C#N)(c2ccc3c(N)ncnn23)[C@](C)(O)[C@@H]1OC(=O)C(C)C)Oc1ccccc1 [Compound 8B] | 5.72 to 6.34
3 | CC(C)OC(=O)[C@H](C)NP(=O)(OC[C@H]1O[C@@](C#N)(c2ccc3c(N)ncnn23)[C@](C)(O)[C@@H]1O)Oc1ccccc1 (stereo partly drawn) [Compound 6] | 5.74 to 6.32
4 | CC(C)OC(=O)[C@H](C)N[P@](=O)(OC[C@H]1O[C@@](C#N)(c2ccc3c(N)ncnn23)[C@](C)(O)[C@@H]1OC(=O)C(C)C)Oc1ccccc1 [Compound 8A] | 6.44 to 7.02

Same assay, conditions: Hepatitis C virus, 72 h; replicon cells, 3 days, luciferase activity; read-out: EC50

Row | SMILES | pEC50
5 | CC(C)OC(=O)[C@H](C)NP(=O)(N[C@@H](C)C(=O)OC(C)C)OC[C@H]1O[C@@](C#N)(c2ccc3c(N)ncnn23)[C@](C)(O)[C@@H]1O [Compound 61] | 4.29
6 | CC(=O)O[C@@H]1[C@@H](COP(=O)(N[C@@H](C)C(=O)OC(C)C)N[C@@H](C)C(=O)OC(C)C)O[C@@](C#N)(c2ccc3c(N)ncnn23)[C@]1(C)O [Compound 65] | 5.08
7 | CC(C)OC(=O)[C@H](C)NP(=O)(N[C@@H](C)C(=O)OC(C)C)OC[C@H]1O[C@@](C#N)(c2ccc3c(N)ncnn23)[C@](C)(O)[C@@H]1OC(=O)C(C)C [Compound 64] | 5.27
8 | C[C@@]1(O)[C@H](O)[C@@H](CO)O[C@@]1(C#N)c1ccc2c(N)ncnn12 [Compound 5] | < 4.05

Target: T1, HCV Δ21 NS5b polymerase (Hepatitis C virus genotype 1b, UniProt Q9WMX2)
T1 construct: 75 nM HCV Δ21 NS5b polymerase
Test: HCV IC50 determination, NS5b polymerase assay
Type: biochemical
Conditions: not given
Procedure: Assay Protocol: NS5b polymerase assay (40 μL) was assembled by adding 28 μL polymerase mixture (final concentration: 50 mM Tris-HCl at pH 7.5, 10 mM KCL, 5 mM MgCl2, 1 mM DTT, 10 mM EDTA, 4 ng/μL of RNA template, and 75 nM HCV Δ21 NS5b polymerase) to assay plates followed by 4 μL of compound dilution. The polymerase and compound were pre-incubated at 35° C. for 10 minute before the addition of 8 μL of nucleotide substrate mixture (33P-α-labeled competing nucleotide at KM and 0.5 mM of the remaining three nucleotides). The assay plates were covered and incubated at 35° C. for 90 min. Reactions were then filtered through 96-well DEAE-81 filter plates via vacuum. The filter plates were then washed under vacuum with multiple volumes of 0.125 M NaHPO4, water, and ethanol to remove unincorporated label. Plates were then counted on TopCount to assess the level of product synthesis over background controls. The IC50 value is determined using Prism fitting program.

Row | SMILES | pIC50
9 | C[C@@]1(O)[C@H](O)[C@@H](COP(=O)(O)OP(=O)(O)OP(=O)(O)O)O[C@@]1(C#N)c1ccc2c(N)ncnn12 [Compound 7] | > 6.00
